The values that follow are results of earlier work, collected in patent publication US20160000720A1, “Pharmaceutical compositions comprising Tadalafil” (AUROBINDO PHARMA LIMITED, priority 2013, published 2016).

Molecules are shown by their SMILES.

As for `CN1CC(=O)N2[C@H](c3ccc4c(c3)OCO4)c3[nH]c4ccccc4c3C[C@@H]2C1=O` [Tadalafil, (6R,12aR)-6-(1,3-benzodioxol-5-yl)-2,3,6,7,12,12a hexa hydro-2-methylpyrazino[1′,2′:1,6]pyrido[3,4-b]indole-1,4-dione], the “solubility in water (in words)” value is recorded as “practically insoluble in water”. For the setting “according to WO 01/08687”, the “soluble in water in a concentration up to” value is reported as “up to 2 μg/ml”.
